From patent publication US20030215462A1, “Use of UGT inhibitors to increase bioavailability” (priority 2001, published 2003)
Several values for one entry are separate records, joined by “and”; a condition that tells them apart may be missing. Equal values may be shown once.

Tests used:
[1] = tested on: T1, UGT enzymes of human liver microsomes; experiment: Inhibition of labetalol glucuronidation (LG1, LG2) in human liver microsomes; format: biochemical; settings: labetalol 50 μM
T1 construct: residual metabolism (percentage of control), labetalol LG1; other: labetalol 50 μM; residual metabolism (percentage of control), labetalol LG1; residual metabolism (percentage of control), labetalol LG2; inhi
Method: Supernatants were analyzed by HPLC with fluorescence detection.
Compounds were eluted using a binary solvent gradient system where solvent A was 5:5:90 tetrahydrofuran-acetonitrile-(NH4)2HPO4 50 mM, while solvent B was 25:25:50 tetrahydrofuran-acetonitrile-(NH4)2HPO4 50 mM. Solvent flow rate was 0.75 ml/min and the column temperature was ambient. […] Labetalol and metabolites were measured by fluorescence detection using a Jasco model FP920 detector. Excitation and emission wavelengths were 370 nm 418 nm respectively. Retention times for salicylamide internal standard and labetalol were 6.6 min and 15.0 min respectively.

[2] = tested on: UGT enzymes of human liver microsomes; experiment: Inhibition of estradiol (E2) glucuronidation in human liver microsomes; format: biochemical; settings: E2 50 μM, inhibitor 10 μM
From the text: (§1) Compounds were eluted using a binary solvent gradient system where solvent A was dilute phosphoric acid (pH 3) and solvent B was 80:20 acetonitrile-methanol. […] Detection was at 280 nm.

[3] = tested on: UGT enzymes of pooled human jejunum microsomes; experiment: Inhibition of raloxifene glucuronidation (G1, G2) in pooled human jejunum microsomes; format: biochemical; settings: jejunum HJ61; inhibitor 10 μM
Method: Compounds were eluted using a binary solvent gradient system. […] Solvent B was methanol. […] Detection was at 280 nm.
Standardized incubations utilized […] microsomal protein, 1 mM UDPGA and a 30 min incubation time.

UGT1A1 = target: T2, UGT1A1 (Homo sapiens, UniProt P22309); experiment: Inhibition of raloxifene glucuronidation by recombinant UGT1A1 Supersomes; settings: human; for activity at 15 min, 2 μM: inhibitor 2 μM; for activity at 15 min, 5 µM: inhibitor 5 μM; for activity at 15 min, 10 µM: inhibitor 10 μM; for activity at 15 min, 25 µM: inhibitor 25 μM; for activity at 15 min, 50 µM: inhibitor 50 μM
T2 sequence (P22309 26-533): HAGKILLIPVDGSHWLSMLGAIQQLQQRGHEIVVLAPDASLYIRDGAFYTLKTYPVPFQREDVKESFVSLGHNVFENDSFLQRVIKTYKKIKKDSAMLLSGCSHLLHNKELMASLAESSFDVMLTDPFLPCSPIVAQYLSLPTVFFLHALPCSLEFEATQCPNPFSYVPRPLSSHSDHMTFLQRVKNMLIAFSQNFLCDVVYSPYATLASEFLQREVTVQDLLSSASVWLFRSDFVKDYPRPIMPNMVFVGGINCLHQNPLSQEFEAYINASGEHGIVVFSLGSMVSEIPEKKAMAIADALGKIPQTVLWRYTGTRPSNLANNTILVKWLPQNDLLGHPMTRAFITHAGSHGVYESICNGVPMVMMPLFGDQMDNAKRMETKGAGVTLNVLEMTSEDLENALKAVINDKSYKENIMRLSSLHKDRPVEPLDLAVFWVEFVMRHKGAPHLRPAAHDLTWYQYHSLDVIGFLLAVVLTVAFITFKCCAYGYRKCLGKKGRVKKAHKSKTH
Method: Compounds were eluted using a binary solvent gradient system. Solvent A was water brought to pH 8 with NH4OH. Solvent B was methanol. Solvent flow rate was 1 ml/min and the column temperature was maintained at 50° C. Detection was at 280 nm. […] The system was then returned to the initial conditions and equilibrated for 3 min.

UGT1A9 = target: T3, UGT1A9 (Homo sapiens, UniProt O60656); experiment: Inhibition of raloxifene glucuronidation by recombinant UGT1A9 Supersomes; settings: for Inhibition of raloxifene glucuronidation, UGT1A9, first line per inhibitor (G1): first line (G1, metabolite not given); for Inhibition of raloxifene glucuronidation, UGT1A9, first line per inhibitor (G1) / Inhibition of raloxifene glucuronidation, UGT1A9, second line per inhibitor (G2): raloxifene 50 μM, 250 μg/ml Supersomes, 1 mM UDPGA, 15 min; for activity at 15 min, 5 µM / activity at 15 min, 10 µM / activity at 15 min, 25 µM / activity at 15 min, 50 µM: human, Supersomes with recombinant human UGT1A9, pH 7.5, probe raloxifene 50 μM; for Inhibition of raloxifene glucuronidation, UGT1A9, second line per inhibitor (G2): second line (G2, metabolite not given)
T3 sequence (O60656 26-530): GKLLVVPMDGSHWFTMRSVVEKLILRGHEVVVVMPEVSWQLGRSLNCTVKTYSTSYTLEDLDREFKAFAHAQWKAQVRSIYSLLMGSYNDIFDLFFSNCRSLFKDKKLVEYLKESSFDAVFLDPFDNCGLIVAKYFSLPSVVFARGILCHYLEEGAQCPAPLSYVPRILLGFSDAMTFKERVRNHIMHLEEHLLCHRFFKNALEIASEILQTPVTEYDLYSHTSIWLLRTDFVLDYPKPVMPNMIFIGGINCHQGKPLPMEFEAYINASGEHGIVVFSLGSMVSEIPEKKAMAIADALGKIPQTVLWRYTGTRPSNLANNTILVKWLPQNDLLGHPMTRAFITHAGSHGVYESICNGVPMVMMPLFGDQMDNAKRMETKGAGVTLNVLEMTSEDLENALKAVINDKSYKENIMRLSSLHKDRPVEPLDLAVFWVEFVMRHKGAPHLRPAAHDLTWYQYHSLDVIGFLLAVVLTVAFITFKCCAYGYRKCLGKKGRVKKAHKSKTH

[4] = tested on: T4, UGT enzymes of human liver microsomes; experiment: Kinetic and Ki studies of inhibitors of 7-HFC glucuronidation in human liver microsomes; format: biochemical; settings: 7-HFC 20-500 μM
T4 construct: percentage of control metabolism, 7-HFC glucuronidation; percentage of control metabolism, 7-HFC glucuronidation

[5] = target: T4, UGT enzymes of human liver microsomes; experiment: Inhibition of 7-HFC glucuronidation in human liver microsomes; format: biochemical; settings: for % of control metabolism (SD, n = 3), 7-HFC glucuronidation: human liver microsomes 100 μg/ml
[6] = tested on: UGT enzymes of pooled human jejunum microsomes; experiment: Inhibition of estradiol (E2) glucuronidation in pooled human jejunum microsomes; format: biochemical; settings: jejunum HJ61; E2 50 μM; inhibitor 10 μM
From the text: as §1

[7] = tested on: T5, UGT enzymes of human liver microsomes; experiment: Inhibition of 2ME2 glucuronidation (MG1, MG2) in human liver microsomes; format: biochemical; settings: liver 062101, 2ME2 50 μM
T5 construct: other: liver 062101
From the text: as §1

[8] = Supersomes with recombinant human UGT1A1, pH 7.5, probe raloxifene 50 μM, formation of glucuronide G1, % of control metabolism, raloxifene G1, UGT1A1
[9] = Supersomes with recombinant human UGT1A1, pH 7.5, probe raloxifene 50 μM, formation of glucuronide G1, Inhibition of raloxifene glucuronidation, G1, UGT1A1, G1, raloxifene 50 μM, 250 μg/ml Supersomes, 1 mM UDPGA, 15 min
[10] = Supersomes with recombinant human UGT1A1, pH 7.5, probe raloxifene 50 μM, formation of glucuronide G2, % of control metabolism, raloxifene G2, UGT1A1
[11] = recombinant UGT1A1 Supersomes, pH 7.5, probe raloxifene 50 μM (formation of glucuronide G1), Inhibition of raloxifene glucuronidation, G1, UGT1A1, G1, raloxifene 50 μM, 250 μg/ml Supersomes, 1 mM UDPGA, 15 min
[12] = recombinant UGT1A1 Supersomes, pH 7.5, probe raloxifene 50 μM (formation of glucuronide G2), Inhibition of raloxifene glucuronidation, G2, UGT1A1, G2, raloxifene 50 μM, 250 μg/ml Supersomes, 1 mM UDPGA, 15 min

residual metabolism (percentage of control), labetalol LG1 ([1]; inhibitor 50 μM): 42 (1) %
residual metabolism (percentage of control), labetalol LG2 ([1]; inhibitor 50 μM): 37 (2) %
residual metabolism (percentage of control), labetalol LG1 ([1]; inhibitor 100 μM): 19 (1) % and 21 (1) %
residual metabolism (percentage of control), labetalol LG2 ([1]; inhibitor 100 μM): 9 (0) % and 13 (3) %
residual metabolism (% of control), E2-3-β-D-glucuronide ([2]; liver 032101): 14 (1) %
residual metabolism (% of control), E2-17-β-D-glucuronide ([2]; liver 032101): 75 (3) %
residual metabolism (% of control), E2-3-β-D-glucuronide ([2]; liver 062101): 26 (4) %
residual metabolism (% of control), E2-17-β-D-glucuronide ([2]; liver 062101): 72 (3) %
% of control metabolism, raloxifene G1 [3]: 39 (7) %
% of control metabolism, raloxifene G2 [3]: 47 (8) %
activity at 15 min (UGT1A1; Supersomes with recombinant human UGT1A1, pH 7.5, probe raloxifene 50 μM, formation of glucuronide G1): 17%
activity at 15 min, 2 μM (UGT1A1; [8]): 71%
activity at 15 min, 5 µM (UGT1A1; [8]): 39%
activity at 15 min, 10 µM (UGT1A1; [8]): 17%
activity at 15 min, 25 µM (UGT1A1; [8]): 4%
activity at 15 min, 50 µM (UGT1A1; [8]): 0.4%
activity at 15 min, 25 µM (UGT1A1; [9]): 4%
activity at 15 min, 50 µM (UGT1A1; [9]): 0.4%
activity at 15 min, 2 μM (UGT1A1; [10]): 71%
activity at 15 min, 5 µM (UGT1A1; [10]): 38%
activity at 15 min, 10 µM (UGT1A1; [10]): 17%
activity at 15 min, 25 µM (UGT1A1; [10]): 8%
activity at 15 min, 50 µM (UGT1A1; [10]): 0.9%
activity at 15 min, 2 μM (UGT1A1; [11]): 71%
activity at 15 min, 5 µM (UGT1A1; [11]): 39%
activity at 15 min (UGT1A1; recombinant UGT1A1 Supersomes, pH 7.5, probe raloxifene 50 μM (formation of glucuronide G2)): 17%
activity at 15 min, 2 μM (UGT1A1; [12]): 71%
activity at 15 min, 5 µM (UGT1A1; [12]): 38%
activity at 15 min, 25 µM (UGT1A1; [12]): 8%
activity at 15 min, 50 µM (UGT1A1; [12]): 0.9%
Inhibition of raloxifene glucuronidation, UGT1A9, first line per inhibitor (G1) (UGT1A9; inhibitor 5 μM): 53 (2)
Inhibition of raloxifene glucuronidation, UGT1A9, first line per inhibitor (G1) (UGT1A9; inhibitor 50 μM): 17 (0)
activity at 15 min, 5 µM (UGT1A9; formation of glucuronide G1, % of control metabolism, raloxifene G1, UGT1A9, inhibitor 5 μM): 53%
activity at 15 min, 10 µM (UGT1A9; formation of glucuronide G1, % of control metabolism, raloxifene G1, UGT1A9, inhibitor 10 μM): 44%
activity at 15 min, 25 µM (UGT1A9; formation of glucuronide G1, % of control metabolism, raloxifene G1, UGT1A9, inhibitor 25 μM): 21%
activity at 15 min, 50 µM (UGT1A9; formation of glucuronide G1, % of control metabolism, raloxifene G1, UGT1A9, inhibitor 50 μM): 17%
activity at 15 min, 5 µM (UGT1A9; formation of glucuronide G2, % of control metabolism, raloxifene G2, UGT1A9, inhibitor 5 μM): 76%
activity at 15 min, 10 µM (UGT1A9; formation of glucuronide G2, % of control metabolism, raloxifene G2, UGT1A9, inhibitor 10 μM): 45%
activity at 15 min, 25 µM (UGT1A9; formation of glucuronide G2, % of control metabolism, raloxifene G2, UGT1A9, inhibitor 25 μM): 19%
activity at 15 min, 50 µM (UGT1A9; formation of glucuronide G2, % of control metabolism, raloxifene G2, UGT1A9, inhibitor 50 μM): 42%
Inhibition of raloxifene glucuronidation, UGT1A9, second line per inhibitor (G2) (UGT1A9; inhibitor 5 μM): 76 (3)
Inhibition of raloxifene glucuronidation, UGT1A9, second line per inhibitor (G2) (UGT1A9; inhibitor 10 μM): 45 (1)
Inhibition of raloxifene glucuronidation, UGT1A9, second line per inhibitor (G2) (UGT1A9; inhibitor 25 μM): 19 (3)
Inhibition of raloxifene glucuronidation, UGT1A9, second line per inhibitor (G2) (UGT1A9; inhibitor 50 μM): 42 (5)
Vmax of 7-HFC glucuronidation (fit of the experiment with this inhibitor) [4]: 57 ± 3 nmol/min/mg
Km ([4]; read-out: Km of 7-HFC glucuronidation (fit of the experiment with this inhibitor)): 85 ± 7 µM
IC50 ([5]; 7-HFC 50 μM, 1 mM UDPGA, 15 min): 10 µM
percentage of control metabolism, 7-HFC glucuronidation ([5]; inhibitor 25 μM): 14 (1) % and 18 (0) %
% of control metabolism (SD, n = 3), 7-HFC glucuronidation ([5]; inhibitor 25 μM, 7-HFC 50 μM, 15 min): 14 (1), % and 18 (0) %
percentage of control metabolism, 7-HFC glucuronidation ([5]; inhibitor 50 μM): 2 (0) %
% of control metabolism (SD, n = 3), 7-HFC glucuronidation ([5]; inhibitor 50 μM, 7-HFC 50 μM, 15 min): 2 (0) %
percentage of control metabolism, 7-HFC glucuronidation ([5]; inhibitor 100 μM): 0 (0) %
% of control metabolism (SD, n = 3), 7-HFC glucuronidation ([5]; inhibitor 100 μM, 7-HFC 50 μM, 15 min): 0 (0) %
percentage of control metabolism, 7-HFC glucuronidation ([5]; inhibitor 200 μM): 0 (0) %
% of control metabolism (SD, n = 3), 7-HFC glucuronidation ([5]; inhibitor 200 μM, 7-HFC 50 μM, 15 min): 0 (0) %
percentage of control metabolism, 7-HFC glucuronidation ([5]; inhibitor 500 μM): 0 (0) %
% of control metabolism (SD, n = 3), 7-HFC glucuronidation ([5]; inhibitor 500 μM, 7-HFC 50 μM, 15 min): 0 (0) %
residual metabolism (% of control), E2-3-β-D-glucuronide [6]: 18 (1) %
residual metabolism (% of control), E2-17-β-D-glucuronide [6]: 17 (1) %
residual metabolism (% of control), 2ME2 MG1 ([7]; inhibitor 25 μM): 13 (1) %
residual metabolism (% of control), 2ME2 MG2 ([7]; inhibitor 25 μM): 49 (7) %
residual metabolism (% of control), 2ME2 MG1 ([7]; inhibitor 50 μM): <LOQ
residual metabolism (% of control), 2ME2 MG2 ([7]; inhibitor 50 μM): 28 (1) %
SMILES: O=C(OC[C@H]1O[C@@H](OC(=O)c2cc(O)c(O)c(OC(=O)c3cc(O)c(O)c(O)c3)c2)[C@H](OC(=O)c2cc(O)c(O)c(OC(=O)c3cc(O)c(O)c(O)c3)c2)[C@@H](OC(=O)c2cc(O)c(O)c(OC(=O)c3cc(O)c(O)c(O)c3)c2)[C@@H]1OC(=O)c1cc(O)c(O)c(OC(=O)c2cc(O)c(O)c(O)c2)c1)c1cc(O)c(O)c(OC(=O)c2cc(O)c(O)c(O)c2)c1 [Tannic acid]
